Measurements taken from patent US8329712B2, “Heterocyclic antiviral compounds” (Roche Palo Alto LLC, priority 2010, dated 2012).

How the values were obtained:
[1] = biological target: T1, HCV polymerase (NS5B570n-Con1) (Hepatitis C virus genotype 1b, UniProt Q9WMX2); experiment: HCV NS5B RNA polymerase activity assay (incorporation of radiolabeled UTP); format: biochemical, HCV Con1 strain
T1 construct: contains a 21 amino acid deletion at the C-terminus relative to the full-length HCV polymerase; 6-histidine (N); made in house; host or cells: E. coli strain BL21(DE) pLysS, plasmid pET 17b
Method: The enzymatic activity of HCV polymerase (NS5B570n-Con1) was measured as the incorporation of radiolabeled nucleotide monophosphates into acid insoluble RNA products. Unincorporated radiolabeled substrate was removed by filtration and scintillant was added to the washed and dried filter plate containing radiolabeled RNA product. The amount of RNA product generated by NS5B570-Con1 at the end of the reaction was directly proportional to the amount of light emitted by the scintillant.
The N-terminal 6-histidine tagged HCV polymerase, derived from HCV Con1 strain, genotype 1b (NS5B570n-Con1) contains a 21 amino acid deletion at the C-terminus relative to the full-length HCV polymerase and was purified from E. coli strain BL21(DE) pLysS. The construct, containing the coding sequence of HCV NS5B Con1 (GenBank accession number AJ242654) was inserted into the plasmid construct pET 17b, downstream of a T7 promoter expression cassette and transformed into E. coli. A single colony was grown overnight as a starter culture and later used inoculate 10 L of LB media supplemented with 100 μg/mL ampicillin at 37° C. Protein expression was induced by the addition of 0.25 mM isopropyl-β-D-thiogalactopyranoside (IPTG) when optical density at […] of the culture was between 0.6 and 0.8 and cells were harvested after 16 to 18 h at 30° C. NS5B570n-Con1 was purified to homogeneity using a three-step protocol including subsequent column chromatography on Ni-NTA, SP-Sepharose HP and Superdex 75 resins.
Each 50 μL enzymatic reaction contained 20 nM RNA template derived from the complementary sequence of the Internal Ribosome Entry Site (cIRES), 20 nM NS5B570n-Con1 enzyme, 0.5 μCi of tritiated UTP (Perkin Elmer catalog no. TRK-412; specific activity: 30 to 60 Ci/mmol; stock solution concentration from 7.5×10^−5 M to 20.6×10^−6 M), 1 μM each ATP, CTP, and GTP, 40 mM Tris-HCl pH 8.0, 40 mM NaCl, 4 mM DTT (dithiothreitol), 4 mM MgC12, and 5 μL of compound serial diluted in DMSO. Reaction mixtures were assembled in 96-well filter plates (cat #MADVNOB, Millipore Co.) and incubated for 2 h at 30° C. Reactions were stopped by addition of 10% final (v/v) trichloroacetic acid and incubated for 40 min at 4° C. Reactions were filtered, washed with 8 reaction volumes of 10% (v/v) trichloroacetic acetic acid, 4 reaction volumes of 70% (v/v) ethanol, air dried, and 25 μL of scintillant (Microscint 20, Perkin-Elmer) was added to each reaction well.
The amount of light emitted from the scintillant was converted to counts per minute (CPM) on a Topcount® plate reader (Perkin-Elmer, Energy Range: Low, Efficiency Mode Normal, Count Time: 1 min, Background Subtract: none, Cross talk reduction: Off).
Data was analyzed in Excel® (Microsoft) and ActivityBase® (Idbs®). The reaction in the absence of enzyme was used to determine the background signal, which was subtracted from the enzymatic reactions. Positive control reactions were performed in the absence of compound, from which the background corrected activity was set as 100% polymerase activity. All data was expressed as a percentage of the positive control. The compound concentration at which the enzyme-catalyzed rate of RNA synthesis was reduced by 50% (IC50) was calculated by fitting equation (i) to the data where“Y” […]

in vitro = settings: human
[2] = system: HCV replicon cells (2209-23), genotype 1b replicon in Huh7 cells; experiment: HCV replicon assay (Renilla luciferase reporter); format: cell-based, HCV genotype 1b; settings: Hepatitis C virus, Huh-7, 72 h; 2209-23 cells, three days incubation
HCV = settings: cited from earlier work

SMILES: CC(C)(C)c1nc(-n2ccc(=O)[nH]c2=O)c2ccc(-c3ccc(NS(C)(=O)=O)cc3)cc2n1 [Compound I-3, N-{4-[2-tert-Butyl-4-(2,4-dioxo-3,4-dihydro-2H-pyrimidin-1-yl)-quinazolin-7-yl]-phenyl}-methanesulfonamide]
- IC50 [1]: < 0.1 nM
- CC50 at 3 days (in vitro): 44 µM
- IC50 [2]: 17 nM
- melting point: 186 to 190 °C

SMILES: CC(C)(C)c1nc(-c2ccc(O)[nH]c2=O)c2ccc(-c3ccc(NS(C)(=O)=O)cc3)cc2n1 [Compound I-4, N-{4-[2-tert-Butyl-4-(6-hydroxy-2-oxo-1,2-dihydro-pyridin-3-yl)-quinazolin-7-yl]-phenyl}-methanesulfonamide]
- IC50 [1]: 2.4 nM

SMILES: CC(C)(C)c1nc(-n2ccc(=O)[nH]c2=O)c2ncc(-c3ccc(NS(C)(=O)=O)cc3)cc2n1 [Compound I-5, N-{4-[2-tert-Butyl-4-(2,4-dioxo-3,4-dihydro-2H-pyrimidin-1-yl)-pyrido[3,2-d]pyrimidin-7-yl]-phenyl}-methanesulfonamide]
- IC50 [1]: 5.5 nM

SMILES: CC(C)(C)c1nc(-c2ccc(O)[nH]c2=O)c2ccc(N3CC[C@H](CNS(C)(=O)=O)C3)cc2n1 [Compound I-2]
- IC50 [1]: 3.5 nM
- melting point: 205.8 to 207.9 °C

SMILES: NC(=O)c1ncn([C@@H]2O[C@H](CO)[C@@H](O)[C@H]2O)n1 [ribavirin, 1-((2R,3R,4S,5R)-3,4-Dihydroxy-5-hydroxymethyl-tetrahydro-furan-2-yl)-1H-[1,2,4]triazole-3-carboxylic acid amide]
- patients with serum amino transferase levels reduced to normal (HCV; monotherapy): 40%
- effect on serum levels of HCV-RNA (HCV; sole treatment / monotherapy): does not lower serum levels of HCV-RNA

SMILES: Cc1ccc(-c2nc(C(C)(C)C)nc3cc(-c4ccc(NS(C)(=O)=O)cc4)cnc23)c(=O)[nH]1 [Compound I-6]
- IC50 [1]: 9.7 nM
